From ChEMBL document CHEMBL4130409, “Gordonic Acid, a Polyketide Glycoside Derived from Bacterial Coculture of Streptomyces and Gordonia Species” (J Nat Prod, 2017)

Tests used:
Gordonia sp. = assay: Growth inhibition of Gordonia sp. KMC005 after 18 to 36 hrs by agar diffusion method
Streptomyces tendae = assay: Growth inhibition of Streptomyces tendae KMC006 after 18 to 36 hrs by agar diffusion method; assay type: organism-based; conditions: in vivo
Micrococcus luteus = assay: Antibacterial activity against Micrococcus luteus KCCM 11548 assessed as zone of inhibition at 10 microg/disk after 18 to 36 hrs by agar diffusion method; assay type: functional; conditions: read-out: DIZ
Enterococcus hirae = assay: Antibacterial activity against Enterococcus hirae KCCM 11768 assessed as zone of inhibition at 10 microg/disk after 18 to 36 hrs by agar diffusion method; assay type: functional; conditions: read-out: DIZ

Structure (SMILES)	Activity (Gordonia sp.)	Activity (Streptomyces tendae)	zone of inhibition at 10 µg/disc (Micrococcus luteus) [mm]	zone of inhibition at 10 µg/disc (Enterococcus hirae) [mm]
CC(/C=C/C=C/C=C/C=C/C(O)=C1\C(=O)[C@H](CCC(=O)O)N(C)C1=O)=C\[C@@H](C)[C@@H](O[C@H]1C[C@H](O)[C@H](O)[C@@H](C)O1)C(C)C	Non-Toxic	Non-Toxic		
CC(/C=C/C=C/C=C/C=C/C(=O)O)=C\[C@@H](C)[C@@H](O[C@H]1C[C@H](O)[C@H](O)[C@@H](C)O1)C(C)C	Non-Toxic	Non-Toxic	2.5	1.5
CC1(C)S[C@@H]2[C@H](NC(=O)[C@H](N)c3ccccc3)C(=O)N2[C@H]1C(=O)O [AMPICILLIN]			10	8
